Reference: patent publication US20200048259A1, “KDM5 INHIBITORS” (priority 2016, published 2020)

target: T1, Full-length KDM5B enzyme (Homo sapiens, UniProt Q9UGL1); assay: KDM5B TR-FRET Enzyme Activity Assay (LANCE); format: biochemical; details: not given
T1 construct: recombinant protein from baculovirus-transfected Sf21 cells: full-length KDM5B; MW=176.825 kDa; host or cells: baculovirus-transfected Sf21 insect cells
Procedure: KDM5B TR-FRET Enzyme Activity Assay
KDM5B enzymatic activity was determined with the LANCE (Lanthanide Chelate Excite) TR-FRET (Time-resolved fluorescence resonance energy transfer) assay. […] Following a 30 minutes compound and enzyme incubation in a humidified chamber, each reaction was initiated by the addition of 1 μL 1× assay buffer containing […] biotinylated H3K4Me3 peptide, and 500 nM α-ketoglutarate. The final reaction in each well of 5 μL consists of 5 nM KDM5B, 500 nM biotinylated-peptide, and 500 nM α-ketoglutarate. De-methylation reactions were allowed to proceed for 60 minutes. Reactions were immediately quenched by the addition of 5 μL of 2× Lance Detection Buffer (PerkinElmer) with 0.5 mM EDTA and 2 nM of Eu-anti-H3K4Mel-2 antibody, and 30 nM of Streptavidin-conjugated Dylight 650 detection reagents. After 60 minutes incubation with detection reagents, reaction plates were read on a PerkinElmer EnVision plate reader using standard TR-FRET protocol. Briefly, excitation of donor molecules (Eu-chelate-anti-H3K4Me1-2-antibody) with a laser light source at 337 nm produces energy that can be transferred to Dylight-650 acceptor molecules if this donor:acceptor pair is within close proximity.
Fluorescence intensity at both 665 nm (acceptor) and 615 nm (donor) are measured and a TR-FRET ratio calculated for each well (acceptor intensity/donor intensity). IC50 values were determined by 4 parameter robust fit of TR-FRET ratio values vs. (Log 10) compound concentrations.

T1 sequence (Q9UGL1 whole entry): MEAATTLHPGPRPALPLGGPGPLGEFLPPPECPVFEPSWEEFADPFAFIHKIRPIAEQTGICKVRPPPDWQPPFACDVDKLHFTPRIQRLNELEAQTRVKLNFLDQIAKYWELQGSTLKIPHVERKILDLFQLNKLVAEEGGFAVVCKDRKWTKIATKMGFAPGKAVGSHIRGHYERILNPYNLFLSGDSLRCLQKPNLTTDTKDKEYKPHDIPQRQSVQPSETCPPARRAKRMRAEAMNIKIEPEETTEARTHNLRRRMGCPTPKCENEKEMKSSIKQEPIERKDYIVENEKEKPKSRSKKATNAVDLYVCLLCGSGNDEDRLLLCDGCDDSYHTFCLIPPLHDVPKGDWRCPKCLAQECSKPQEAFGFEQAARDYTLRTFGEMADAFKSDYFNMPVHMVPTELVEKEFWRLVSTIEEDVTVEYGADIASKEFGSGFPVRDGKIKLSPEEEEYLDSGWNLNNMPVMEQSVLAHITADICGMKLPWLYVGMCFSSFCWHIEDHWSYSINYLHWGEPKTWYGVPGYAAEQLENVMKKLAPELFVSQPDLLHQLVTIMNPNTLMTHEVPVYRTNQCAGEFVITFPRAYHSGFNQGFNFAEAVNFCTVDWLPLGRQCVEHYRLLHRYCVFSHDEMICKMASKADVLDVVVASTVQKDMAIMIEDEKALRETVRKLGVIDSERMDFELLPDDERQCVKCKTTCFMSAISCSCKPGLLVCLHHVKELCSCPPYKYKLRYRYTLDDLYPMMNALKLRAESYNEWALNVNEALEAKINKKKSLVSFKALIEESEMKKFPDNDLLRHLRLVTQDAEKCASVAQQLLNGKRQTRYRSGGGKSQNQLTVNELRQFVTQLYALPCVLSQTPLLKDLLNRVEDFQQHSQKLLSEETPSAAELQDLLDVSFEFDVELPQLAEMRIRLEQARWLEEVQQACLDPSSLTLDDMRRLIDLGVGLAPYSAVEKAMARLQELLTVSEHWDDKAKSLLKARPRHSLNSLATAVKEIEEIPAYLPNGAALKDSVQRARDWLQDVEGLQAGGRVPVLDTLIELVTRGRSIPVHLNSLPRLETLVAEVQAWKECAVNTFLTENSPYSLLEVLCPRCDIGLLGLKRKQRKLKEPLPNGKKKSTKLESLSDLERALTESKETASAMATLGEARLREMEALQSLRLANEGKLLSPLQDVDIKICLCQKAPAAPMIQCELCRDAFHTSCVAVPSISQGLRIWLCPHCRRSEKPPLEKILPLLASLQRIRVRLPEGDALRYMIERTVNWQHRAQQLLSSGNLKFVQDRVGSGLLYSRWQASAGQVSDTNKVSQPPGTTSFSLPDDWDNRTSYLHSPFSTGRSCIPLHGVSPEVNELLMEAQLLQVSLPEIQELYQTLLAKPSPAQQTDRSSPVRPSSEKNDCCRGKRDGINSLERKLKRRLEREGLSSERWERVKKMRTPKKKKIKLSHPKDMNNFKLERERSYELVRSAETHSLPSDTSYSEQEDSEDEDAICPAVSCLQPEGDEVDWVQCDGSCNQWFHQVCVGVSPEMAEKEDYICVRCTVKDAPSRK

IC50 [µM] | SMILES
> 100 | CCCCc1cc(=O)n2nc(C)nc2[nH]1 [Example 7-49, 5-butyl-2-methyl[1,2,4]triazolo[1,5-a]pyrimidin-7(4H)-one]
14.2 | Cc1nc2[nH]c(-c3ccc(Cl)cc3)cc(=O)n2n1 [Example 7-51, 5-(4-chlorophenyl)-2-methyl[1,2,4]triazolo[1,5-a]pyrimidin-7(4H)-one]
> 100 | Cc1nc2[nH]c(-c3ccccc3Cl)cc(=O)n2n1 [Example 7-52, 5-(2-chlorophenyl)-2-methyl[1,2,4]triazolo[1,5-a]pyrimidin-7(4H)-one]
> 100 | Cc1nc2[nH]c(CC3CCCC3)cc(=O)n2n1 [Example 7-56, 5-(cyclopentylmethyl)-2-methyl[1,2,4]triazolo[1,5-a]pyrimidin-7(4H)-one]
> 100 | Cc1nc2[nH]c(CC(C)(C)C)cc(=O)n2n1 [Example 7-57, 5-(2,2-dimethylpropyl)-2-methyl[1,2,4]triazolo[1,5-a]pyrimidin-7(4H)-one]
> 100 | Cc1nc2[nH]c(C3CCOCC3)cc(=O)n2n1 [Example 7-58, 2-methyl-5-(tetrahydro-2H-pyran-4-yl)[1,2,4]triazolo[1,5-a]pyrimidin-7(4H)-one]
> 100 | Cc1nc2[nH]c(C3CCCCC3)cc(=O)n2n1 [Example 7-59, 5-cyclohexyl-2-methyl[1,2,4]triazolo[1,5-a]pyrimidin-7(4H)-one]
> 100 | Cc1nc2[nH]c(C3CCCC3)cc(=O)n2n1 [Example 7-61, 5-cyclopentyl-2-methyl[1,2,4]triazolo[1,5-a]pyrimidin-7(4H)-one]
> 100 | Cc1nc2[nH]c(CC3CC3)cc(=O)n2n1 [Example 7-63, 5-(cyclopropylmethyl)-2-methyl[1,2,4]triazolo[1,5-a]pyrimidin-7(4H)-one]
7.64 | Cc1nc2[nH]c(-c3ccccc3)cc(=O)n2n1 [Example 7-69, 2-methyl-5-phenyl-[1,2,4]triazolo[1,5-a]pyrimidin-7(4H)-one]

same assay, conditions: 5 nM full-length KDM5B, biotinylated H3K4Me3 peptide, 500 nM α-ketoglutarate; ten point titration 100000 nM to 5.08 nM; read-out: IC50

IC50 [µM] | SMILES
28.8 | CCc1[nH]c2nc(C)nn2c(=O)c1C [Example 7-47, 5-ethyl-2,6-dimethyl[1,2,4]triazolo[1,5-a]pyrimidin-7(4H)-one]
29.6 | Cc1nc2[nH]c(C(F)(F)F)c(C)c(=O)n2n1 [Example 7-48, 2,6-dimethyl-5-(trifluoromethyl)[1,2,4]triazolo[1,5-a]pyrimidin-7(4H)-one]
70.5 | Cc1nc2[nH]c(C)c(F)c(=O)n2n1 [Example 7-50, 6-fluoro-2,5-dimethyl[1,2,4]triazolo[1,5-a]pyrimidin-7(4H)-one]
37.5 | Cc1nc2[nH]c(-c3ccccc3F)cc(=O)n2n1 [Example 7-53, 5-(2-fluorophenyl)-2-methyl[1,2,4]triazolo[1,5-a]pyrimidin-7(4H)-one]
12.3 | Cc1nc2[nH]c(-c3cccc(Cl)c3)cc(=O)n2n1 [Example 7-54, 5-(3-chlorophenyl)-2-methyl[1,2,4]triazolo[1,5-a]pyrimidin-7(4H)-one]
98.4 | Cc1nc2[nH]c(Cc3ccccc3)cc(=O)n2n1 [Example 7-55, 5-benzyl-2-methyl[1,2,4]triazolo[1,5-a]pyrimidin-7(4H)-one]
6.38 | CCc1c(C(F)(F)F)[nH]c2nc(C)nn2c1=O [Example 7-60, 6-ethyl-2-methyl-5-(trifluoromethyl)[1,2,4]triazolo[1,5-a]pyrimidin-7(4H)-one]
63.2 | Cc1nc2[nH]c(C3CCC3)cc(=O)n2n1 [Example 7-62, 5-cyclobutyl-2-methyl[1,2,4]triazolo[1,5-a]pyrimidin-7(4H)-one]
44.2 | Cc1nc2[nH]c(C3CC3)c(C)c(=O)n2n1 [Example 7-64, 5-cyclopropyl-2,6-dimethyl[1,2,4]triazolo[1,5-a]pyrimidin-7(4H)-one]
28.2 | Cc1nc2[nH]c(C(F)(F)F)c(F)c(=O)n2n1 [Example 7-65, 6-fluoro-2-methyl-5-(trifluoromethyl)[1,2,4]triazolo[1,5-a]pyrimidin-7(4H)-one]
27.8 | Cc1nc2[nH]c(C3CCCC3)c(C)c(=O)n2n1 [Example 7-66, 5-cyclopentyl-2,6-dimethyl[1,2,4]triazolo[1,5-a]pyrimidin-7(4H)-one]
53.6 | Cc1nc2[nH]c(C3CCCCC3)c(C)c(=O)n2n1 [Example 7-67, 5-cyclohexyl-2,6-dimethyl[1,2,4]triazolo[1,5-a]pyrimidin-7(4H)-one]
22.8 | Cc1nc2[nH]c(C3CCC3)c(C)c(=O)n2n1 [Example 7-68, 5-cyclobutyl-2,6-dimethyl[1,2,4]triazolo[1,5-a]pyrimidin-7(4H)-one]
